Reference: ChEMBL document CHEMBL3885881, “DrugMatrix”

Species on record: Rattus norvegicus
Assay: DrugMatrix - Regimen: Daily Repeat
Assay type: toxicity, organism-based, Sprague-Dawley
Design: regimen Daily Repeat, gender Male, age 6-8 weeks
Settings: in vivo, po, […], route oral GAVAGE; for ABSOLUTE BASOPHIL / ABSOLUTE EOSINOPHIL / ABSOLUTE LYMPHOCYTE / ABSOLUTE MONOCYTE / ABSOLUTE SEGMENTED NEUTROPHIL / BASOPHIL / EOSINOPHIL / ERYTHROCYTE COUNT / HEMATOCRIT / HEMOGLOBIN / LEUKOCYTE COUNT / LYMPHOCYTE / MEAN CORPUSCULAR HEMOGLOBIN / MEAN CORPUSCULAR HEMOGLOBIN CONCENTRATION / MEAN CORPUSCULAR VOLUME / MONOCYTE / NEUTROPHIL / NUCLEATED RED BLOOD CELLS / PLATELET COUNT: tissue Blood; for ALANINE AMINOTRANSFERASE / ALBUMIN / ALKALINE PHOSPHATASE / ASPARTATE AMINOTRANSFERASE / BLOOD UREA NITROGEN / CARBON DIOXIDE / CHLORIDE / CHOLESTEROL / CREATINE PHOSPHOKINASE / CREATININE / GLUCOSE / LACTATE DEHYDROGENASE / LIPASE / PHOSPHORUS / POTASSIUM / SODIUM / TOTAL BILIRUBIN / TOTAL PROTEIN / URIC ACID: tissue Plasma
[1] = 400 mg/kg, dose level Low, time 7 day
[2] = 1175 mg/kg, 72 h, dose level High, time 3 day
[3] = 1175 mg/kg, dose level High, time 7 day

Question: For `ClC(Cl)(Cl)Cl` [CARBON TETRACHLORIDE], which “ABSOLUTE BASOPHIL” value [1] is on record?
Answer: 0 CELLS/uL

Question: And the “ABSOLUTE EOSINOPHIL” value [1]?
Answer: 0 CELLS/uL

Question: What about the “ABSOLUTE LYMPHOCYTE” value [1] of the same molecule?
Answer: 12903.17 CELLS/uL

Question: And the “ABSOLUTE MONOCYTE” value [1]?
Answer: 339.83 CELLS/uL

Question: And the “ABSOLUTE SEGMENTED NEUTROPHIL” value [1]?
Answer: 990.33 CELLS/uL

Question: And the BASOPHIL [1]?
Answer: 0%

Question: What about the EOSINOPHIL [1] of the same molecule?
Answer: 0%

Question: And the “ERYTHROCYTE COUNT” value [1]?
Answer: 6.32 x10E6/uL

Question: And the HEMATOCRIT [1]?
Answer: 37.03%

Question: And the HEMOGLOBIN [1]?
Answer: 14.83 G/DL

Question: And the “LEUKOCYTE COUNT” value [1]?
Answer: 14.23 x10E3/uL

Question: What about the LYMPHOCYTE [1] of the same molecule?
Answer: 90.33%

Question: And the “MEAN CORPUSCULAR HEMOGLOBIN” value [1]?
Answer: 23.5 pg

Question: What about the “MEAN CORPUSCULAR HEMOGLOBIN CONCENTRATION” value [1] of the same molecule?
Answer: 40.08 G/DL

Question: And the “MEAN CORPUSCULAR VOLUME” value [1]?
Answer: 58.68 fL

Question: And the MONOCYTE [1]?
Answer: 2.17%

Question: What about the NEUTROPHIL [1] of the same molecule?
Answer: 7.5%

Question: What about the “NUCLEATED RED BLOOD CELLS” value [1] of the same molecule?
Answer: 0 /100WBC

Question: What about the “PLATELET COUNT” value [1] of the same molecule?
Answer: 869.5 x10E3/uL

Question: What about the “ALANINE AMINOTRANSFERASE” value [1] of the same molecule?
Answer: 295.83 u/L

Question: And the ALBUMIN [1]?
Answer: 4.12 G/DL

Question: And the “ALKALINE PHOSPHATASE” value [1]?
Answer: 598 u/L

Question: What about the “ASPARTATE AMINOTRANSFERASE” value [1] of the same molecule?
Answer: 469.33 u/L

Question: And the “BLOOD UREA NITROGEN” value [1]?
Answer: 15.17 mg/dL

Question: What about the “CARBON DIOXIDE” value [1] of the same molecule?
Answer: 29 mmol/L

Question: And the CHLORIDE [1]?
Answer: 99.67 MEQ/L

Question: What about the CHOLESTEROL [1] of the same molecule?
Answer: 34.17 mg/dL

Question: What about the “CREATINE PHOSPHOKINASE” value [1] of the same molecule?
Answer: 258.83 u/L

Question: What about the CREATININE [1] of the same molecule?
Answer: 0.27 mg/dL

Question: What about the GLUCOSE [1] of the same molecule?
Answer: 129 mg/dL

Question: What about the “LACTATE DEHYDROGENASE” value [1] of the same molecule?
Answer: 176.83 u/L

Question: What about the LIPASE [1] of the same molecule?
Answer: 10 u/L

Question: What about the PHOSPHORUS [1] of the same molecule?
Answer: 9.22 mg/dL

Question: What about the POTASSIUM [1] of the same molecule?
Answer: 5.35 MEQ/L

Question: What about the SODIUM [1] of the same molecule?
Answer: 142.35 MEQ/L

Question: What about the “TOTAL BILIRUBIN” value [1] of the same molecule?
Answer: 0.22 mg/dL

Question: And the “TOTAL PROTEIN” value [1]?
Answer: 5.88 G/DL

Question: What about the “URIC ACID” value [1] of the same molecule?
Answer: 0.82 mg/dL

Question: What about the “ABSOLUTE BASOPHIL” value [2] of the same molecule?
Answer: 0 CELLS/uL

Question: What about the “ABSOLUTE EOSINOPHIL” value [2] of the same molecule?
Answer: 29 CELLS/uL

Question: And the “ABSOLUTE LYMPHOCYTE” value [2]?
Answer: 12136.5 CELLS/uL

Question: What about the “ABSOLUTE MONOCYTE” value [2] of the same molecule?
Answer: 331.83 CELLS/uL

Question: And the “ABSOLUTE SEGMENTED NEUTROPHIL” value [2]?
Answer: 869.33 CELLS/uL

Question: And the BASOPHIL [2]?
Answer: 0%

Question: And the EOSINOPHIL [2]?
Answer: 0.33%

Question: And the “ERYTHROCYTE COUNT” value [2]?
Answer: 6.02 x10E6/uL

Question: What about the HEMATOCRIT [2] of the same molecule?
Answer: 37.65%

Question: What about the HEMOGLOBIN [2] of the same molecule?
Answer: 13.88 G/DL

Question: And the “LEUKOCYTE COUNT” value [2]?
Answer: 13.37 x10E3/uL

Question: What about the LYMPHOCYTE [2] of the same molecule?
Answer: 90.67%

Question: And the “MEAN CORPUSCULAR HEMOGLOBIN” value [2]?
Answer: 23.13 pg

Question: What about the “MEAN CORPUSCULAR HEMOGLOBIN CONCENTRATION” value [2] of the same molecule?
Answer: 36.9 G/DL

Question: What about the “MEAN CORPUSCULAR VOLUME” value [2] of the same molecule?
Answer: 62.75 fL

Question: And the MONOCYTE [2]?
Answer: 2.5%

Question: And the NEUTROPHIL [2]?
Answer: 6.5%

Question: And the “NUCLEATED RED BLOOD CELLS” value [2]?
Answer: 0.17 /100WBC

Question: What about the “PLATELET COUNT” value [2] of the same molecule?
Answer: 800.67 x10E3/uL

Question: What about the “ALANINE AMINOTRANSFERASE” value [2] of the same molecule?
Answer: 129 u/L

Question: What about the ALBUMIN [2] of the same molecule?
Answer: 3.92 G/DL

Question: What about the “ALKALINE PHOSPHATASE” value [2] of the same molecule?
Answer: 531.5 u/L

Question: And the “ASPARTATE AMINOTRANSFERASE” value [2]?
Answer: 232.83 u/L

Question: What about the “BLOOD UREA NITROGEN” value [2] of the same molecule?
Answer: 19.17 mg/dL

Question: What about the “CARBON DIOXIDE” value [2] of the same molecule?
Answer: 31.33 mmol/L

Question: And the CHLORIDE [2]?
Answer: 101.5 MEQ/L

Question: What about the CHOLESTEROL [2] of the same molecule?
Answer: 41.67 mg/dL

Question: And the “CREATINE PHOSPHOKINASE” value [2]?
Answer: 258.5 u/L

Question: What about the CREATININE [2] of the same molecule?
Answer: 0.28 mg/dL

Question: What about the GLUCOSE [2] of the same molecule?
Answer: 144.83 mg/dL

Question: What about the “LACTATE DEHYDROGENASE” value [2] of the same molecule?
Answer: 110 u/L

Question: What about the LIPASE [2] of the same molecule?
Answer: 10.5 u/L

Question: What about the PHOSPHORUS [2] of the same molecule?
Answer: 9.55 mg/dL

Question: What about the POTASSIUM [2] of the same molecule?
Answer: 5.46 MEQ/L

Question: And the SODIUM [2]?
Answer: 145.42 MEQ/L

Question: And the “TOTAL BILIRUBIN” value [2]?
Answer: 0.1 mg/dL

Question: And the “TOTAL PROTEIN” value [2]?
Answer: 5.68 G/DL

Question: And the “URIC ACID” value [2]?
Answer: 0.45 mg/dL

Question: What about the “ABSOLUTE BASOPHIL” value [3] of the same molecule?
Answer: 0 CELLS/uL

Question: And the “ABSOLUTE EOSINOPHIL” value [3]?
Answer: 0 CELLS/uL

Question: What about the “ABSOLUTE LYMPHOCYTE” value [3] of the same molecule?
Answer: 11238.67 CELLS/uL

Question: And the “ABSOLUTE MONOCYTE” value [3]?
Answer: 252 CELLS/uL

Question: What about the “ABSOLUTE SEGMENTED NEUTROPHIL” value [3] of the same molecule?
Answer: 1109.33 CELLS/uL

Question: And the BASOPHIL [3]?
Answer: 0%

Question: And the EOSINOPHIL [3]?
Answer: 0%

Question: What about the “ERYTHROCYTE COUNT” value [3] of the same molecule?
Answer: 6.55 x10E6/uL

Question: And the HEMATOCRIT [3]?
Answer: 37.82%

Question: What about the HEMOGLOBIN [3] of the same molecule?
Answer: 14.68 G/DL

Question: And the “LEUKOCYTE COUNT” value [3]?
Answer: 12.6 x10E3/uL

Question: And the LYMPHOCYTE [3]?
Answer: 89%

Question: What about the “MEAN CORPUSCULAR HEMOGLOBIN” value [3] of the same molecule?
Answer: 22.53 pg

Question: And the “MEAN CORPUSCULAR HEMOGLOBIN CONCENTRATION” value [3]?
Answer: 38.87 G/DL

Question: And the “MEAN CORPUSCULAR VOLUME” value [3]?
Answer: 57.97 fL

Question: And the MONOCYTE [3]?
Answer: 2%

Question: What about the NEUTROPHIL [3] of the same molecule?
Answer: 9%

Question: And the “NUCLEATED RED BLOOD CELLS” value [3]?
Answer: 0 /100WBC

Question: And the “PLATELET COUNT” value [3]?
Answer: 761 x10E3/uL

Question: And the “ALANINE AMINOTRANSFERASE” value [3]?
Answer: 302 u/L

Question: And the ALBUMIN [3]?
Answer: 3.77 G/DL

Question: And the “ALKALINE PHOSPHATASE” value [3]?
Answer: 779.83 u/L

Question: What about the “ASPARTATE AMINOTRANSFERASE” value [3] of the same molecule?
Answer: 589.83 u/L

Question: What about the “BLOOD UREA NITROGEN” value [3] of the same molecule?
Answer: 17.67 mg/dL

Question: What about the “CARBON DIOXIDE” value [3] of the same molecule?
Answer: 30.5 mmol/L

Question: And the CHLORIDE [3]?
Answer: 98.83 MEQ/L

Question: What about the CHOLESTEROL [3] of the same molecule?
Answer: 26.5 mg/dL

Question: And the “CREATINE PHOSPHOKINASE” value [3]?
Answer: 269.67 u/L

Question: And the CREATININE [3]?
Answer: 0.24 mg/dL

Question: What about the GLUCOSE [3] of the same molecule?
Answer: 122.83 mg/dL

Question: And the “LACTATE DEHYDROGENASE” value [3]?
Answer: 182.5 u/L

Question: And the LIPASE [3]?
Answer: 9.17 u/L

Question: And the PHOSPHORUS [3]?
Answer: 9.22 mg/dL

Question: And the POTASSIUM [3]?
Answer: 5.74 MEQ/L

Question: And the SODIUM [3]?
Answer: 142.6 MEQ/L

Question: What about the “TOTAL BILIRUBIN” value [3] of the same molecule?
Answer: 0.22 mg/dL

Question: What about the “TOTAL PROTEIN” value [3] of the same molecule?
Answer: 5.7 G/DL

Question: And the “URIC ACID” value [3]?
Answer: 0.47 mg/dL
